Assay results: patent US20090069370A1, “AZACYCLYLISOQUINOLINONE AND ISOINDOLINONE DERIVATIVES AS HISTAMINE-3 ANTAGONISTS” (Wyeth, priority 2007, published 2009)
Structures can show the parent of a compound that is named as a salt.

target: T1, Human Histamine H3 Receptor (Homo sapiens, UniProt Q9Y5N1); assay: Methyl histamine binding in human histamine H3 receptor cell line; settings: membranes of stably transfected HEK293T cells; radioligand 1 nM; Ki from IC50 by Cheng-Prusoff
T1 construct: expressed in transfected cells; host or cells: HEK293T cells, stably transfected; membrane preparation
Method: Evaluation of Methyl Histamine Binding in Human Histamine H3 Receptor Cell Line
The affinity of test compounds for the histamine 3 (H3) receptor is evaluated in the following manner. Stably transfected HEK293T cells are grown in DMEM containing 10% heat inactivated FBS and G-418 (500 ug/ml). Cells are scraped from the plate, transferred to centrifuge tubes, washed one time in PBS by centrifugation in a Sorvall RT7 Plus centrifuge (2000 rpm 10 minutes, 4° C.). The resulting pellets are stored at −80° C. until ready for use. Cells are re-suspended in buffer (50 mM Tris pH=7.5) and placed in a Dounce homogenizer, douncing ten times to homogenize cells. The homogenate is spun down by centrifugation (Sorvall RT7 Plus, 1800 rpm 10 minutes, 4° C.). The supernatant is placed in a Corex tube and spun down by centrifugation (Sorvall RC 5c Plus, 17,000 rpm 20 minutes, 4° C.). The pellet is resuspended in buffer (50 mM Tris, pH 7.5). Protein concentration (ug/ul) is determined using the Micro-BCA Protein Determination. The binding assay is set up in a 96 well microtiter plate in a total volume of 250 uL. Non-specific binding is determined in the presence of 10 uM clobenpropit. The final radioligand concentration is 1 nM. The test compound is serially diluted using the Beckman Biomek2000 to a final approximate range of 100 uM to 100 pM. Membranes are suspended in buffer, homogenized in 2 bursts of ten seconds using a Vitris mechanical homogenizer set at power setting 5. Ten μg of membranes are added to each well. Following a one hour incubation at 30° C., the reaction is terminated by the addition of ice cold buffer and rapid filtration with a Packard Filtermate Harvester through a GF/B filter pre-soaked with 1% PEI for one hour. The plate is dried for one hour at 37° C. and 60 μL Microscint Scintillant is added to each well. The CPM per well is measured on a Packard Top Count NXT. Ki values are determined in nM. The Ki is calculated from the IC50 (i.e. the concentration of competing ligand which displaces 50% of the specific binding of the radioligand). CPM values are expressed as % specific binding and plotted vs compound concentration. A curve is fitted using a four-parameter logistic fit and the IC50 value is determined. The Ki is calculated from this using the Cheng-Prusoff equation: […]=IC50/1+(L/Kd) where L=concentration of free radioligand used in the assay, and Kd is the dissociation constant of the radioligand for the receptor. L is determined for each experiment by counting an aliquot of the diluted radioligand (corresponding to that added to each well) and the Kd has previously been determined under identical conditions for this cell line/radioligand.

T1 sequence (Q9Y5N1 whole entry): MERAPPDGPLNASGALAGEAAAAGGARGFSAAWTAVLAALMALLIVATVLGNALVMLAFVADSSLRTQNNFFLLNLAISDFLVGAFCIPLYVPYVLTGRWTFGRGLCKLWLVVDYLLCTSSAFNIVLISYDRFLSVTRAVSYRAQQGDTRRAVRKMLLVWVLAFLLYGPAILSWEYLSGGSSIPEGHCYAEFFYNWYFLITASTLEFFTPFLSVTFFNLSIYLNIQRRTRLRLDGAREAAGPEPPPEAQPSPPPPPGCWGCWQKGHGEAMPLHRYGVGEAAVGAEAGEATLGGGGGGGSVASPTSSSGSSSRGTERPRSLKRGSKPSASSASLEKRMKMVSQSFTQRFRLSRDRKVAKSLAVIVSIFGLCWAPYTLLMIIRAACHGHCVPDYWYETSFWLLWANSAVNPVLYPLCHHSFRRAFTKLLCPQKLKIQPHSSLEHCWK

| Compound | Ki [nM] |
| --- | --- |
| O=C(O)c1ccc(Oc2ccc3c(c2)CCN(C2CCN(C4CCC4)CC2)C3=O)cc1 [Example 2, 4-{[2-(1-cyclobutylpiperidin-4-yl)-1-oxo-1,2,3,4-tetrahydroiso-quinolin-6-yl]oxy}benzoic acid] | 50.1 to 100 |
| O=C(O)c1ccc(Oc2ccc3c(c2)CCN([C@@H]2CCN(C4CCCC4)C2)C3=O)cc1 [Example 36, (R)-4-(2-(1-cyclopentylpyrrolidin-3-yl)-1-oxo-1,2,3,4-tetrahydro-isoquinolin-6-yloxy)benzoic acid] | 50.1 to 100 |
| N#Cc1ccc(-c2ccc3c(c2)CN(C2CCN(C4CCC4)CC2)C3=O)cc1 [Example 28, 4-[2-(1-Cyclobutylpiperidin-4-yl)-1-oxo-2,3-dihydro-1H-isoindol-5-yl]benzonitrile] | 25.1 to 50 |
| CN1CCC(N2Cc3cc(-c4ccc(C#N)cc4)ccc3C2=O)CC1 [Example 23, hydrochloride] | > 100 |
| CCNC(=O)c1ccc(Oc2ccc3c(c2)CCN(C2CCN(C4CCC4)CC2)C3=O)cc1 [Example 5, 4-{[2-(1-Cyclobutylpiperidin-4-yl)-1-oxo-1,2,3,4-tetrahydroisoquinolin-6-yl]oxy}-N-ethylbenzamide] | ≤ 10 |
| COC(=O)c1ccc(COc2ccc3c(c2)CCN(C2CCN(C4CCC4)CC2)C3=O)cc1 [Example 13, methyl 4-({[2-(1-Cyclobutylpiperidin-4-yl)-1-oxo-1,2,3,4-tetrahydroisoquinolin-6-yl]oxy}methyl)benzoate] | 10.1 to 25 |
| CCN1CCC(N2Cc3cc(-c4ccc(C#N)cc4)ccc3C2=O)CC1 [Example 24, 4-[2-(1-Ethylpiperidin-4-yl)-1-oxo-2,3-dihydro-1H-isoindol-5-yl]benzonitrile] | > 100 |
| O=C(NC1CCCC1)c1ccc(Oc2ccc3c(c2)CCN(C2CCN(C4CCC4)CC2)C3=O)cc1 [Example 9, 4-{[2-(1-Cyclobutylpiperidin-4-yl)-1-oxo-1,2,3,4-tetrahydroisoquinolin-6-yl]oxy}-N-cyclopentylbenzamide] | 10.1 to 25 |
| CCNC(=O)c1ccc(COc2ccc3c(c2)CCN(C2CCN(C4CCC4)CC2)C3=O)cc1 [Example 17, 4-({[2-(1-Cyclobutylpiperidin-4-yl)-1-oxo-1,2,3,4-tetrahydroisoquinolin-6-yl]oxy}methyl)-N-ethylbenzamide] | ≤ 10 |
| O=C(NC1CCC1)c1ccc(Oc2ccc3c(c2)CCN(C2CCN(C4CCC4)CC2)C3=O)cc1 [Example 8, N-Cyclobutyl-4-{[2-(1-cyclobutylpiperidin-4-yl)-1-oxo-1,2,3,4-tetrahydroisoquinolin-6-yl]oxy}benzamide] | ≤ 10 |
| O=C(O)c1ccc(Oc2ccc3c(c2)CCN([C@@H]2CCN(C4CCC4)C2)C3=O)cc1 [Example 32, (R)-4-(2-(1-cyclobutylpyrrolidin-3-yl)-1-oxo-1,2,3,4-tetrahydroiso-quinolin-6-yloxy)benzoic acid] | > 100 |
| NC(=O)c1ccc(COc2ccc3c(c2)CCN(C2CCN(C4CCC4)CC2)C3=O)cc1 [Example 15, 4-({[2-(1-cyclobutylpiperidin-4-yl)-1-oxo-1,2,3,4-tetrahydroiso-quinolin-6-yl]oxy}methyl)benzamide acid hydrochloride] | ≤ 10 |
| COC(=O)c1ccc(Oc2ccc3c(c2)CCN(C2CCN(C4CCC4)CC2)C3=O)cc1 [Example 1, methyl 4-{[2-(1-Cyclobutylpiperidin-4-yl)-1-oxo-1,2,3,4-tetrahydroisoquinolin-6-yl]oxy}benzoate] | 50.1 to 100 |
| CN(C)C(=O)c1ccc(Oc2ccc3c(c2)CCN(C2CCN(C4CCC4)CC2)C3=O)cc1 [Example 10, 4-{[2-(1-Cyclobutylpiperidin-4-yl)-1-oxo-1,2,3,4-tetrahydroisoquinolin-6-yl]oxy}-N,N-dimethylbenzamide] | 10.1 to 25 |
| O=C(O)c1ccc(COc2ccc3c(c2)CCN(C2CCN(C4CCC4)CC2)C3=O)cc1 [Example 14, 4-({[2-(1-cyclobutylpiperidin-4-yl)-1-oxo-1,2,3,4-tetrahydroiso-quinolin-6-yl]oxy}methyl)benzoic acid] | 10.1 to 25 |

Other lines, results leading:

| Ki [nM] | Compound |
| --- | --- |
| 50.1 to 100 | CN1CC[C@@H](N2CCc3cc(-c4ccc(C(=O)N5CCCC5)cc4)ccc3C2=O)C1 [Example 55, 2-[(3R)-1-methylpyrrolidin-3-yl]-6-[4-(pyrrolidin-1-ylcarbonyl)phenyl]-3,4-dihydroisoquinolin-1(2H)-one] |
| ≤ 10 | O=C(c1ccc(-c2ccc3c(c2)CCN([C@@H]2CCN(C4CCC4)C2)C3=O)cc1)N1CCCC1 [Example 47, 2-[(3R)-1-cyclobutylpyrrolidin-3-yl]-6-[4-(pyrrolidin-1-ylcarbonyl)phenyl]-3,4-dihydroisoquinolin-1(2H)-one] |
| ≤ 10 | O=C(c1ccc(-c2ccc3c(c2)CCN([C@@H]2CCN(C4CCC4)C2)C3=O)c(F)c1)N1CCCC1 [Example 79, 2-[(3R)-1-cyclobutylpyrrolidin-3-yl]-6-[2-fluoro-4-(pyrrolidin-1-ylcarbonyl)phenyl]-3,4-dihydroisoquinolin-1(2H)-one] |
| ≤ 10 | O=C(c1ccc(-c2ccc3c(c2)CCN([C@@H]2CCN(C4CCCC4)C2)C3=O)cc1)N1CCCC1 [Example 43, 2-[(3R)-1-cyclopentylpyrrolidin-3-yl]-6-[4-(pyrrolidin-1-ylcarbonyl)phenyl]-3,4-dihydroisoquinolin-1(2H)-one] |
| ≤ 10 | O=C(c1ccc(-c2ccc3c(c2)CCN([C@@H]2CCN(C4CCC4)C2)C3=O)cc1Cl)N1CCCC1 [Example 49, 6-[3-chloro-4-(pyrrolidin-1-ylcarbonyl)phenyl]-2-[(3R)-1-cyclobutylpyrrolidin-3-yl]-3,4-dihydroisoquinolin-1(2H)-one] |
| ≤ 10 | CCNC(=O)c1ccc(-c2ccc3c(c2)CCN([C@@H]2CCN(C4CCC4)C2)C3=O)c(F)c1 [Example 77, 4-{2-[(3R)-1-cyclobutylpyrrolidin-3-yl]-1-oxo-1,2,3,4-tetrahydroisoquinolin-6-yl}-N-ethyl-3-fluorobenzamide] |
| ≤ 10 | O=C(c1ccc(-c2ccc3c(c2)CCN([C@@H]2CCN(CC4CC4)C2)C3=O)cc1)N1CCCC1 [Example 58, 2-[(3R)-1-(cyclopropylmethyl)pyrrolidin-3-yl]-6-[4-(pyrrolidin-1-ylcarbonyl)phenyl]-3,4-dihydroisoquinolin-1(2H)-one] |
| 10.1 to 25 | CCNC(=O)c1ccc(Oc2ccc3c(c2)CCN([C@@H]2CCN(C4CCCC4)C2)C3=O)cc1 [Example 38, 4-({2-[(3R)-1-cyclopentylpyrrolidin-3-yl]-1-oxo-1,2,3,4-tetrahydroisoquinolin-6-yl}oxy)-N-ethylbenzamide] |
| 25.1 to 50 | O=C(c1ccc2c(c1)CCN([C@@H]1CCN(C3CCC3)C1)C2=O)N1CCCC1 [Example 87, 2-[(3R)-1-cyclobutylpyrrolidin-3-yl]-6-(pyrrolidin-1-ylcarbonyl)-3,4-dihydroisoquinolin-1(2H)-one hydrochloride] |

test system: not given; assay: not given; settings: not given

| melting point [°C] | Compound |
| --- | --- |
| 255 to 256 | O=C(O)c1ccc(Oc2ccc3c(c2)CCN(C2CCN(C4CCC4)CC2)C3=O)cc1 [Example 2, 4-{[2-(1-cyclobutylpiperidin-4-yl)-1-oxo-1,2,3,4-tetrahydroiso-quinolin-6-yl]oxy}benzoic acid] |
| 170 to 173 | O=C(O)c1ccc(Oc2ccc3c(c2)CCN([C@@H]2CCN(C4CCCC4)C2)C3=O)cc1 [Example 36, (R)-4-(2-(1-cyclopentylpyrrolidin-3-yl)-1-oxo-1,2,3,4-tetrahydro-isoquinolin-6-yloxy)benzoic acid] |
| 165 to 166 | COC(=O)c1ccc(COc2ccc3c(c2)CCN(C2CCN(C4CCC4)CC2)C3=O)cc1 [Example 13, methyl 4-({[2-(1-Cyclobutylpiperidin-4-yl)-1-oxo-1,2,3,4-tetrahydroisoquinolin-6-yl]oxy}methyl)benzoate] |
| 269 to 270 | O=C(O)c1ccc(COc2ccc3c(c2)CCN(C2CCN(C4CCC4)CC2)C3=O)cc1 [Example 14, 4-({[2-(1-cyclobutylpiperidin-4-yl)-1-oxo-1,2,3,4-tetrahydroiso-quinolin-6-yl]oxy}methyl)benzoic acid] |
